≈ marks a conversion by molar mass, not a printed value.
What was measured:
Type in all cases: functional
[1] = test system: Sporothrix schenckii; assay: Antifungal activity against Sporothrix schenckii P30915 isolate from cutaneous-lymphatic sporotrichosis patient after 72 hrs by ATB Fungus 2 method
[2] = test system: Sporothrix schenckii; assay: Antifungal activity against Sporothrix schenckii P30915 isolate from cutaneous-lymphatic sporotrichosis patient after 72 hrs by Sensititre YeastOne method
[3] = test system: Sporothrix schenckii; assay: Antifungal activity against Sporothrix schenckii PJRC002 isolate from cutaneous-lymphatic sporotrichosis patient after 72 hrs by Sensititre YeastOne method
[4] = test system: Sporothrix schenckii; assay: Antifungal activity against Sporothrix schenckii P14036 isolate from cutaneous-lymphatic sporotrichosis patient after 72 hrs by Sensititre YeastOne method
[5] = test system: Sporothrix schenckii; assay: Antifungal activity against Sporothrix schenckii P25013 isolate from cutaneous-lymphatic sporotrichosis patient after 72 hrs by modified NCCLS M38-A method
[6] = test system: Sporothrix schenckii; assay: Antifungal activity against Sporothrix schenckii P30019 isolate from cutaneous-lymphatic sporotrichosis patient after 72 hrs by ATB Fungus 2 method
[7] = test system: Sporothrix schenckii; assay: Antifungal activity against Sporothrix schenckii P30019 isolate from cutaneous-lymphatic sporotrichosis patient after 72 hrs by modified NCCLS M38-A method
[8] = test system: Sporothrix schenckii; assay: Antifungal activity against Sporothrix schenckii P14954 isolate from cutaneous-lymphatic sporotrichosis patient after 72 hrs by Sensititre YeastOne method
[9] = test system: Sporothrix schenckii; assay: Antifungal activity against Sporothrix schenckii P10012 isolate from cutaneous-lymphatic sporotrichosis patient after 72 hrs by modified NCCLS M38-A method
[10] = test system: Sporothrix schenckii; assay: Antifungal activity against Sporothrix schenckii isolate from cutaneous-lymphatic sporotrichosis patient after 72 hrs by Sensititre YeastOne method
[11] = test system: Sporothrix schenckii; assay: Antifungal activity against Sporothrix schenckii P14036 isolate from cutaneous-lymphatic sporotrichosis patient after 72 hrs by ATB Fungus 2 method
[12] = test system: Sporothrix schenckii; assay: Antifungal activity against Sporothrix schenckii PSCC1 isolate from cutaneous-lymphatic sporotrichosis patient after 72 hrs by Sensititre YeastOne method
[13] = test system: Sporothrix schenckii; assay: Antifungal activity against Sporothrix schenckii P1621 isolate from cutaneous-lymphatic sporotrichosis patient after 72 hrs by modified NCCLS M38-A method
[14] = test system: Sporothrix schenckii; assay: Antifungal activity against Sporothrix schenckii P1621 isolate from cutaneous-lymphatic sporotrichosis patient after 72 hrs by ATB Fungus 2 method
[15] = test system: Sporothrix schenckii; assay: Antifungal activity against Sporothrix schenckii P26187 isolate from cutaneous-lymphatic sporotrichosis patient after 72 hrs by ATB Fungus 2 method
[16] = test system: Sporothrix schenckii; assay: Antifungal activity against Sporothrix schenckii P30019 isolate from cutaneous-lymphatic sporotrichosis patient after 72 hrs by Sensititre YeastOne method
[17] = test system: Sporothrix schenckii; assay: Antifungal activity against Sporothrix schenckii P30915 isolate from cutaneous-lymphatic sporotrichosis patient after 72 hrs by modified NCCLS M38-A method
[18] = test system: Sporothrix schenckii; assay: Antifungal activity against Sporothrix schenckii P24255 isolate from cutaneous-lymphatic sporotrichosis patient after 72 hrs by modified NCCLS M38-A method
[19] = test system: Sporothrix schenckii; assay: Antifungal activity against Sporothrix schenckii PSSA81 isolate from cutaneous-lymphatic sporotrichosis patient after 72 hrs by Sensititre YeastOne method
[20] = test system: Sporothrix schenckii; assay: Antifungal activity against Sporothrix schenckii PSSA81 isolate from cutaneous-lymphatic sporotrichosis patient after 72 hrs by ATB Fungus 2 method
[21] = test system: Pichia kudriavzevii; assay: Antifungal activity against Candida krusei ATCC 6258 […] after 72 hrs by ATB Fungus 2 method; details: ATCC 6258, 72 h
[22] = test system: Sporothrix schenckii; assay: Antifungal activity against Sporothrix schenckii PJRC002 isolate from cutaneous-lymphatic sporotrichosis patient after 72 hrs by ATB Fungus 2 method
[23] = test system: Sporothrix schenckii; assay: Antifungal activity against Sporothrix schenckii P14036 isolate from cutaneous-lymphatic sporotrichosis patient after 72 hrs by modified NCCLS M38-A method
[24] = test system: Sporothrix schenckii; assay: Antifungal activity against Sporothrix schenckii P26187 isolate from cutaneous-lymphatic sporotrichosis patient after 72 hrs by modified NCCLS M38-A method
[25] = test system: Sporothrix schenckii; assay: Antifungal activity against Sporothrix schenckii PJRC002 isolate from cutaneous-lymphatic sporotrichosis patient after 72 hrs by modified NCCLS M38-A method
[26] = test system: Sporothrix schenckii; assay: Antifungal activity against Sporothrix schenckii P3287 isolate from cutaneous-lymphatic sporotrichosis patient after 72 hrs by modified NCCLS M38-A method
[27] = test system: Sporothrix schenckii; assay: Antifungal activity against Sporothrix schenckii P1621 isolate from cutaneous-lymphatic sporotrichosis patient after 72 hrs by Sensititre YeastOne method
[28] = test system: Sporothrix schenckii; assay: Antifungal activity against Sporothrix schenckii P24255 isolate from cutaneous-lymphatic sporotrichosis patient after 72 hrs by Sensititre YeastOne method
[29] = test system: Sporothrix schenckii; assay: Antifungal activity against Sporothrix schenckii P14954 isolate from cutaneous-lymphatic sporotrichosis patient after 72 hrs by modified NCCLS M38-A method
[30] = test system: Sporothrix schenckii; assay: Antifungal activity against Sporothrix schenckii SSA29 isolate from cutaneous-lymphatic sporotrichosis patient after 72 hrs by ATB Fungus 2 method
[31] = test system: Sporothrix schenckii; assay: Antifungal activity against Sporothrix schenckii P20825 isolate from cutaneous-lymphatic sporotrichosis patient after 72 hrs by modified NCCLS M38-A method
[32] = test system: Sporothrix schenckii; assay: Antifungal activity against Sporothrix schenckii P20825 isolate from cutaneous-lymphatic sporotrichosis patient after 72 hrs by Sensititre YeastOne method
[33] = test system: Sporothrix schenckii; assay: Antifungal activity against Sporothrix schenckii P0019 isolate from cutaneous-lymphatic sporotrichosis patient after 72 hrs by Sensititre YeastOne method
[34] = test system: Sporothrix schenckii; assay: Antifungal activity against Sporothrix schenckii P24223 isolate from cutaneous-lymphatic sporotrichosis patient after 72 hrs by modified NCCLS M38-A method
[35] = test system: Sporothrix schenckii; assay: Antifungal activity against Sporothrix schenckii P24223 isolate from cutaneous-lymphatic sporotrichosis patient after 72 hrs by ATB Fungus 2 method
[36] = test system: Pichia kudriavzevii; assay: Antifungal activity against Candida krusei ATCC 6258 […] after 72 hrs by Sensititre YeastOne method; details: ATCC 6258, 72 h
[37] = test system: Sporothrix schenckii; assay: Antifungal activity against Sporothrix schenckii PGAC0016 isolate from cutaneous-lymphatic sporotrichosis patient after 72 hrs by Sensititre YeastOne method
[38] = test system: Sporothrix schenckii; assay: Antifungal activity against Sporothrix schenckii isolate from cutaneous-lymphatic sporotrichosis patient after 72 hrs by ATB Fungus 2 method
[39] = test system: Sporothrix schenckii; assay: Antifungal activity against Sporothrix schenckii P25013 isolate from cutaneous-lymphatic sporotrichosis patient after 72 hrs by ATB Fungus 2 method
[40] = test system: Candida parapsilosis; assay: Antifungal activity against Candida parapsilosis ATCC 22019 […] after 72 hrs by ATB Fungus 2 method; details: Lodderomyces parapsilosis, ATCC 22019, 72 h
[41] = test system: Sporothrix schenckii; assay: Antifungal activity against Sporothrix schenckii P3287 isolate from cutaneous-lymphatic sporotrichosis patient after 72 hrs by Sensititre YeastOne method
[42] = test system: Sporothrix schenckii; assay: Antifungal activity against Sporothrix schenckii P25013 isolate from cutaneous-lymphatic sporotrichosis patient after 72 hrs by Sensititre YeastOne method
[43] = test system: Sporothrix schenckii; assay: Antifungal activity against Sporothrix schenckii P3287 isolate from cutaneous-lymphatic sporotrichosis patient after 72 hrs by ATB Fungus 2 method
[44] = test system: Sporothrix schenckii; assay: Antifungal activity against Sporothrix schenckii P0019 isolate from cutaneous-lymphatic sporotrichosis patient after 72 hrs by modified NCCLS M38-A method
[45] = test system: Sporothrix schenckii; assay: Antifungal activity against Sporothrix schenckii P20825 isolate from cutaneous-lymphatic sporotrichosis patient after 72 hrs by ATB Fungus 2 method

With `C[C@@H]1[C@H](O)[C@@H](C)/C=C/C=C/C=C/C=C/C=C/C=C/C=C/[C@H](O[C@@H]2O[C@H](C)[C@@H](O)[C@H](N)[C@@H]2O)C[C@@H]2O[C@](O)(C[C@@H](O)C[C@@H](O)[C@H](O)CC[C@@H](O)C[C@@H](O)CC(=O)O[C@H]1C)C[C@H](O)[C@H]2C(=O)O` [AMPHOTERICIN B] the MIC [1] was ≤ 0.5 mg/L, the MIC [2] was 0.5 mg/L (≈ 0.541 µM) and the MIC [3] was 1 mg/L (≈ 1.08 µM). For the same compound, the MIC [4] was 0.5 mg/L (≈ 0.541 µM), the MIC [5] was > 16 mg/L and the MIC [6] was 1 mg/L (≈ 1.08 µM). It also gave an MIC [7] of 1 mg/L (≈ 1.08 µM), an MIC [8] of 1 mg/L (≈ 1.08 µM) and an MIC [9] of 0.06 mg/L (≈ 0.0649 µM). For the same compound, the MIC50 [10] was 0.5 mg/L (≈ 0.541 µM), the MIC90 [10] was 1 mg/L (≈ 1.08 µM) and the MIC [11] was 1 mg/L (≈ 1.08 µM). For the same compound, the MIC [12] was 0.25 mg/L (≈ 0.271 µM), the MIC [13] was 0.125 mg/L (≈ 0.135 µM) and the MIC [14] was ≤ 0.5 mg/L. The MIC [15] was 4 mg/L (≈ 4.33 µM), the MIC [16] was 1 mg/L (≈ 1.08 µM) and the MIC [17] was 0.25 mg/L (≈ 0.271 µM). It also gave an MIC [18] of 2 mg/L (≈ 2.16 µM), an MIC [19] of 0.06 mg/L (≈ 0.0649 µM) and an MIC [20] of 4 mg/L (≈ 4.33 µM). For the same compound, the MIC [21] was ≤ 0.5 mg/L, the MIC [22] was 1 mg/L (≈ 1.08 µM) and the MIC [23] was > 16 mg/L. For the same compound, the MIC [24] was > 16 mg/L, the MIC [25] was 4 mg/L (≈ 4.33 µM) and the MIC [26] was > 16 mg/L. It also gave an MIC [27] of 0.5 mg/L (≈ 0.541 µM), an MIC [28] of 0.5 mg/L (≈ 0.541 µM) and an MIC [29] of 0.25 mg/L (≈ 0.271 µM). The MIC [30] was 2 mg/L (≈ 2.16 µM), the MIC [31] was > 16 mg/L and the MIC [32] was 1 mg/L (≈ 1.08 µM). For the same compound, the MIC [33] was 0.25 mg/L (≈ 0.271 µM), the MIC [34] was 0.5 mg/L (≈ 0.541 µM) and the MIC [35] was ≤ 0.5 mg/L. It also gave an MIC [36] of 0.5 mg/L (≈ 0.541 µM), an MIC [37] of 0.125 mg/L (≈ 0.135 µM) and an MIC50 [38] of 1 mg/L (≈ 1.08 µM). The MIC90 [38] was 4 mg/L (≈ 4.33 µM), the MIC [39] was 1 mg/L (≈ 1.08 µM) and the MIC [40] was ≤ 0.5 mg/L. The MIC [41] was 0.5 mg/L (≈ 0.541 µM), the MIC [42] was 1 mg/L (≈ 1.08 µM) and the MIC [43] was 8 mg/L (≈ 8.66 µM). For the same compound, the MIC [44] was 0.125 mg/L (≈ 0.135 µM) and the MIC [45] was 1 mg/L (≈ 1.08 µM).
`OC(Cn1cncn1)(Cn1cncn1)c1ccc(F)cc1F` [FLUCONAZOLE] was tested, and the MIC [1] was > 128 mg/L, the MIC [2] was > 256 mg/L and the MIC [3] was > 256 mg/L. For the same compound, the MIC [4] was > 256 mg/L, the MIC [5] was > 64 mg/L and the MIC [6] was > 128 mg/L. For the same compound, the MIC [7] was > 64 mg/L, the MIC [8] was > 256 mg/L and the MIC [9] was > 64 mg/L. The MIC50 [10] was > 256 mg/L, the MIC90 [10] was > 256 mg/L and the MIC [11] was > 128 mg/L. For the same compound, the MIC [12] was > 256 mg/L, the MIC [13] was > 64 mg/L and the MIC [14] was > 128 mg/L. For the same compound, the MIC [15] was > 128 mg/L, the MIC [16] was > 128 mg/L and the MIC [17] was > 64 mg/L. The MIC [18] was > 64 mg/L, the MIC [19] was 128 mg/L (≈ 418 µM) and the MIC [20] was > 128 mg/L. The MIC [21] was 32 mg/L (≈ 104 µM), the MIC [22] was > 256 mg/L and the MIC [23] was > 128 mg/L. For the same compound, the MIC [24] was > 64 mg/L, the MIC [25] was > 64 mg/L and the MIC [26] was > 64 mg/L. The MIC [27] was > 256 mg/L, the MIC [28] was > 256 mg/L and the MIC [29] was > 64 mg/L. For the same compound, the MIC [30] was > 128 mg/L, the MIC [31] was > 64 mg/L and the MIC [32] was 256 mg/L (≈ 836 µM). The MIC [33] was > 256 mg/L, the MIC [34] was > 64 mg/L and the MIC [35] was > 128 mg/L. For the same compound, the MIC [36] was 64 mg/L (≈ 209 µM), the MIC [37] was > 256 mg/L and the MIC50 [38] was > 128 mg/L. For the same compound, the MIC90 [38] was > 128 mg/L, the MIC [39] was > 128 mg/L and the MIC [40] was 4 mg/L (≈ 13.1 µM). For the same compound, the MIC [41] was > 256 mg/L, the MIC [42] was 128 mg/L (≈ 418 µM) and the MIC [43] was > 128 mg/L. For the same compound, the MIC [44] was > 64 mg/L and the MIC [45] was > 128 mg/L.

Reference: ChEMBL document CHEMBL1150788, “In vitro susceptibility of Sporothrix schenckii to six antifungal agents determined using three different methods” (2007)
